Experimental data published in ChEMBL document CHEMBL1201862, “PubChem BioAssay data set” (2004).
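Where inhibition never reached the appropriate level, the endpoint shown equals the highest concentration tested. Otherwise, values were interpolated linearly from a five-concentration, 48-hour dose response in 96-well plates. GI50 = concentration required for 50% inhibition of growth.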 Active and inactive are the calls of the source. No stated cut-off is given here; in the data, active = GI50 up to about 1.1 µM and inactive = higher.

Tests used:
Assay in all cases: inhibition of tumour cell growth, NCI panel, 48 h
786-0 = tested on: 786-0
A498 = tested on: A498
COLO 205 = tested on: COLO 205
HCT-15 = tested on: HCT-15
HOP-62 = tested on: HOP-62
K562 = tested on: K562
KM12 = tested on: KM12
MDA-MB-435 = tested on: MDA-MB-435
Malme-3M = tested on: Malme-3M
NCI-H23 = tested on: NCI-H23
NCI-H522 = tested on: NCI-H522
NCI/ADR-RES = tested on: NCI/ADR-RES
PC-3 = tested on: PC-3
SF-268 = tested on: SF-268
SK-MEL-28 = tested on: SK-MEL-28
SN12C = tested on: SN12C
T47D = tested on: T47D
U-251 = tested on: U-251
UO-31 = tested on: UO-31
UACC-257 = tested on: UACC-257

| SMILES | GI50 (786-0) | GI50 (A498) | GI50 (COLO 205) | GI50 (HCT-15) | GI50 (HOP-62) | GI50 (K562) | GI50 (KM12) | GI50 (MDA-MB-435) | GI50 (Malme-3M) | GI50 (NCI-H23) | GI50 (NCI-H522) | GI50 (NCI/ADR-RES) | GI50 (PC-3) | GI50 (SF-268) | GI50 (SK-MEL-28) | GI50 (SN12C) | GI50 (T47D) | GI50 (U-251) | GI50 (UO-31) | GI50 (UACC-257) |
| --- | --- | --- | --- | --- | --- | --- | --- | --- | --- | --- | --- | --- | --- | --- | --- | --- | --- | --- | --- | --- |
| O=NC1C(Cl)C2CC1C1C(Br)C(Br)CC21 (stereo not drawn) | > 100 µM (inactive) | > 100 µM (inactive) | > 100 µM (inactive) | > 100 µM | > 100 µM (inactive) | > 100 µM (inactive) | > 100 µM (inactive) | > 100 µM (inactive) | > 100 µM (inactive) | > 100 µM (inactive) | > 100 µM (inactive) | > 100 µM (inactive) | > 100 µM (inactive) | > 100 µM (inactive) | > 100 µM (inactive) | > 100 µM (inactive) | > 100 µM (inactive) | > 100 µM (inactive) | > 100 µM (inactive) |  |
| CC(=O)N(CCc1ccccc1)C(C)(C#N)c1ccccc1 (stereo not drawn) | > 100 µM (inactive) | > 100 µM (inactive) | > 100 µM (inactive) | > 100 µM | > 100 µM (inactive) | > 100 µM (inactive) | > 100 µM (inactive) | > 100 µM (inactive) | > 100 µM (inactive) | > 100 µM (inactive) | > 100 µM (inactive) | > 100 µM (inactive) | > 100 µM (inactive) | > 100 µM (inactive) | > 100 µM (inactive) | > 100 µM (inactive) | > 100 µM (inactive) | > 100 µM (inactive) | > 100 µM (inactive) | > 100 µM (inactive) |
| Cc1sccc1C(=S)Nc1ccc(Cl)c(/C=N/OC(C)(C)C)c1 | 21.1 µM (inactive) | 23.8 µM (inactive) | 13.9 µM (inactive) | 15 µM | 16 µM (inactive) |  | 13.2 µM (inactive) | 21.7 µM (inactive) | 15.1 µM (inactive) | 15.4 µM (inactive) | 12 µM (inactive) | 17.8 µM (inactive) | 15.4 µM (inactive) | 18.3 µM (inactive) | 26.6 µM (inactive) | 12.5 µM (inactive) | 10.6 µM (inactive) | 21.6 µM (inactive) | 12.5 µM (inactive) | 17 µM (inactive) |
| C=CCC1=CC2(OC)C(=O)C(OC)(OC)C1C1C(OC)(OC)C(=O)C(OC)=CC12CC=C (stereo not drawn) | > 100 µM (inactive) | > 100 µM (inactive) | > 100 µM (inactive) | > 100 µM | > 100 µM (inactive) | > 100 µM (inactive) | > 100 µM (inactive) | > 100 µM (inactive) | > 100 µM (inactive) | > 100 µM (inactive) | > 100 µM (inactive) | > 100 µM (inactive) | > 100 µM (inactive) | > 100 µM (inactive) | > 100 µM (inactive) | > 100 µM (inactive) | > 100 µM (inactive) | > 100 µM (inactive) | > 100 µM (inactive) | > 100 µM (inactive) |
| CC1=NN(c2ccc(S(=O)(=O)O)cc2)C(=O)/C1=C/c1ccc(Cl)cc1.c1ccncc1 | > 100 µM (inactive) | > 100 µM (inactive) | > 100 µM (inactive) | > 100 µM | > 100 µM (inactive) | > 100 µM (inactive) | > 100 µM (inactive) | > 100 µM (inactive) | > 100 µM (inactive) | > 100 µM (inactive) | > 100 µM (inactive) | > 100 µM (inactive) | > 100 µM (inactive) | > 100 µM (inactive) | > 100 µM (inactive) | > 100 µM (inactive) | > 100 µM (inactive) | > 100 µM (inactive) | > 100 µM (inactive) | > 100 µM (inactive) |
| COC12c3ccccc3-c3ccccc3C1[C@H]1C(=O)OC(=O)[C@H]12 (stereo partly drawn) | > 10 µM (inactive) | > 10 µM (inactive) | > 10 µM (inactive) | > 10 µM | > 10 µM (inactive) | > 10 µM (inactive) | > 10 µM (inactive) | > 10 µM (inactive) | > 10 µM (inactive) | > 10 µM (inactive) | > 10 µM (inactive) | > 10 µM (inactive) | > 10 µM (inactive) | > 10 µM (inactive) | > 10 µM (inactive) | > 10 µM (inactive) | > 10 µM (inactive) | > 10 µM (inactive) | > 10 µM (inactive) | > 10 µM (inactive) |
| O=[N+]([O-])c1nccn1CCCNc1c2ccccc2[n+]([O-])c2ccccc12 | > 100 µM (inactive) | > 100 µM (inactive) | 18.2 µM (inactive) | > 100 µM | > 100 µM (inactive) | > 100 µM (inactive) | > 100 µM (inactive) | > 100 µM (inactive) | > 100 µM (inactive) | > 100 µM (inactive) | > 100 µM (inactive) | > 100 µM (inactive) | > 100 µM (inactive) | > 100 µM (inactive) | > 100 µM (inactive) | > 100 µM (inactive) | > 100 µM (inactive) | > 100 µM (inactive) | > 100 µM (inactive) | > 100 µM (inactive) |
